In one assay the target is T1, AR (Rattus norvegicus, UniProt P15207).
T1 sequence (P15207 1-902): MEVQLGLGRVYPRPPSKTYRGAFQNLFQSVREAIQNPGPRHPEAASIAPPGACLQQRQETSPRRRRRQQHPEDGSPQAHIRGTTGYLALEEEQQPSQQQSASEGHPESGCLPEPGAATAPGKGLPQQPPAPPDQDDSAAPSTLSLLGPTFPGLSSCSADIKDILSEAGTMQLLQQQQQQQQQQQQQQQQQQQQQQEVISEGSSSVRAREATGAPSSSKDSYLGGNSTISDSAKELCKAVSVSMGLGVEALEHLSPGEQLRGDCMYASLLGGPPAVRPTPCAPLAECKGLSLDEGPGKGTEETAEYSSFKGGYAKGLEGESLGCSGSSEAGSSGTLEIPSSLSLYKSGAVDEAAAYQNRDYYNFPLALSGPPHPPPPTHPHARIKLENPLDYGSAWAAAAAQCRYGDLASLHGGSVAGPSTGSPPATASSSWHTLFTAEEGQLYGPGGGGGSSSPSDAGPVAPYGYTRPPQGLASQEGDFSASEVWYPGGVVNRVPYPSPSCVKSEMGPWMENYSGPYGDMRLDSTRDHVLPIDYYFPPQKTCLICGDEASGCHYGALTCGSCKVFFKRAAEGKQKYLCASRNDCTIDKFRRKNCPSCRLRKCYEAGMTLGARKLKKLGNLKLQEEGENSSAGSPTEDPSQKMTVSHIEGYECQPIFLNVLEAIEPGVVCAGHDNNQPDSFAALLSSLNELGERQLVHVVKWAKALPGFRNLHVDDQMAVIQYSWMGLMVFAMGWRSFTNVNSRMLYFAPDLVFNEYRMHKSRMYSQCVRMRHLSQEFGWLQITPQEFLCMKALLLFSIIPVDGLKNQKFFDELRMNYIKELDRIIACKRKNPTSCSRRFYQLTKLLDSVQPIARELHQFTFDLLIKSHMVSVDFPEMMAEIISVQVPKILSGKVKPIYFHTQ
The source says: The activity of compounds of the present invention as AR agonists was investigated in an immature male rat model, a recognized test of anabolic effects in muscle and sustaining effects in sex organs for a given compound, as described in L. G. Hershberger et al., Proc. Soc. […] Biol. Med., 83, 175 (1953); B. L. Beyler et al, “Methods for evaluating anabolic and catabolic agents in laboratory animals”, J. Amer. Med. Women's Ass., 23, 708 (1968); H. Fukuda et al., “Investigations of the levator ani muscle as an anabolic steroid assay”, Nago Dai. Yak. Ken. Nem. 14, 84 (1966) the disclosures of which are herein incorporated by reference.
The basis of this assay lies in the well-defined action of androgenic agents on the maintenance and growth of muscle tissues and sexual accessory organs in animals and man. […] J. Anat. […] I. Quantitative data” Boll.-Soc. Ital. Biol. Sper. […] II. Electron-microscopic observations” Boll.-Soc. Ital. Biol. Sper. 42, 1600 (1966); A. Boris et al., Steroids 15, 61 (1970). As described above, the effects of androgens on maintenance of male sexual accessory organs, such as the prostate and seminal vesicles, is well described. Castration results in rapid involution and atrophy of the prostate and seminal vesicles. This effect can be reversed by exogenous addition of androgens. […]

For assay [1], the system named is endogenous glucocorticoid receptor (A549 cells, AP-1 luciferase reporter). The assay can be described thus: In vitro assay to measure GR-induced AP-1 transrepression (luciferase reporter in A549 cells). It is filed as cell-based. Conditions: concentration of ≦10 μM; 10 ng/mL PMA; 7 h; typical value.
Method: The AP-1 assay is a cell-based luciferase reporter assay. A549 cells, which contain endogenous glucocorticoid receptor, were stably transfected with an AP-1 DNA binding site attached to the luciferase gene. Cells are then grown in RPMI+10% fetal calf serum (charcoal-treated)+Penicillin/Streptomycin with 0.5 mg/mL geneticin. Cells are plated the day before the assay at approximately 40000 cells/well. On assay day, the media is removed by aspiration and 20 μL assay buffer (RPMI without phenol red+10% FCS (charcoal-treated)+Pen/Strep) is added to each well. At this point either 20 μL assay buffer (control experiments), the compounds of the present invention (“test compounds”) (dissolved in DMSO and added at varying concentrations) or dexamethasome (100 nM in DMSO, positive control) are added to each well. The plates are then pre-incubated for 15 min at 37° C., followed by stimulation of the cells with 10 ng/mL PMA. The plates are then incubated for 7 h at 37° C. after which 40 μL luciferase substrate reagent is added to each well. Activity is measured by analysis in a luminometer as compared to control experiments treated with buffer or dexamethasome.
Assay [2] relates to wild type AR (MDA 453 cells). The following applies: read-out: Kd for [3H]-DHT, Scatchard analysis, 4 h at 37° C. The procedure:
For the whole-cell binding assay, human LNCaP cells (T877A mutant AR) or MDA 453 (wild type AR) in 96-well microtiter plates containing RPMI 1640 or DMEM supplemented with 10% charcoal stripped CA-FBS (Cocaleco Biologicals) respectively, were incubated at 37° C. to remove any endogenous ligand that might be complexed with the receptor in the cells.
For the saturation analysis, the difference between the total binding and the non-specific binding, was defined as specific binding. […] See e.g. D. Rodbard, Mathematics and statistics of ligand assays: an illustrated guide: In: J. Langon and J. J. Clapp, eds., Ligand Assay, Masson Publishing U.S.A., Inc., New York, pp. 45-99, (1981), the disclosure of which is herein incorporated by reference.
[formula] After correcting for non-specific binding, IC50 values were determined. […] C2C12 Mouse Myoblast Transactivation Assay

As for `CCC(=O)O[C@H]1CC[C@H]2[C@@H]3CCC4=CC(=O)CC[C@]4(C)[C@H]3CC[C@]12C` [TP, testosterone propionate], at AR (immature castrated rats), the “EC50 (increase in organ weight)” value is recorded as around 0.03 mg. Also, on AR (organ weight increase, rats), the “potency relative to free T” value is given as 10-30 fold. In the case of `C[C@@H]1C[C@H]2[C@@H]3CCC4=CC(=O)C=C[C@]4(C)[C@@]3(F)[C@@H](O)C[C@]2(C)[C@@]1(O)C(=O)CO` [dexamethasone], the “suppression of activity (% inhibition of the reporter system vs buffer control with PMA alone)” value in assay [1] came to 65%. In general, Kd refers to a measure of binding affinity in units of concentration. For the compound “tritiated dihydrotestosterone [[^3H]-DHT]”, in assay [2], the Kd was determined as 0.7 nM.

The values above are taken from US7388027B2, “Bicyclic compounds as modulators of androgen receptor function and method” (Bristol-Myers Squibb Company, priority 2004, dated 2008).
